In the first assay the target is T1, Human ATX protein (Homo sapiens, UniProt Q13822).
T1 construct: made in house
Kind of assay: Autotaxin (ATX) assay, FRET with FS-3 substrate. The assay is classed as biochemical. Particulars: 10 uM compound. The method, boiled down:
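Hydrolysis of the FRET substrate FS-3 (2 μM final) unquenches fluorescein, read at excitation 485 nm and emission 538 nm after 2 h at room temperature, protected from light. Purified human ATX (1.0 μg/mL) and compound were first incubated for 30 min in pH 7.4 Tris/salt buffer containing 1 mg/mL fatty acid-free BSA.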
As to `Nc1cc2n(n1)CCCN(C(=O)OCc1cc(C(F)(F)F)cc(C(F)(F)F)c1)C2` [Example 279, 3,5-Bis(trifluoromethyl)benzyl 2-amino-7,8-dihydro-4H-pyrazolo[1,5-a][1,4]diazepine-5(6H)-carboxylate], the inhibition at 10 µM is 60%.

With `O=C(OCc1cc(C(F)(F)F)cc(C(F)(F)F)c1)N1CCCn2nc(CO)cc2C1` [Example 282, 3,5-bis(trifluoromethyl)benzyl 2-(hydroxymethyl)-7,8-dihydro-4H-pyrazolo[1,5-a][1,4]diazepine-5(6H)-carboxylate], the inhibition at 10 µM came to 60%.

Staying with this assay, now noted: upper bound bins (no greater than 100, 250 or 500 nM); FS-3 2 μM, ATX 1.0 μg/mL.
`O=C(OCc1cc(C(F)(F)F)cc(C(F)(F)F)c1)N1CCn2nc(C3CN4CCC[C@@H]4CO3)cc2C1` (stereo partly drawn) [Example 256, 3,5-bis(trifluoromethyl)benzyl 2-((8aR)-hexahydro-1H-pyrrolo[2,1-c][1,4]oxazin-3-yl)-6,7-dihydropyrazolo[1,5-a]pyrazine-5(4H)-carboxylate] registered an IC50 of at most 100 nM.

`CC1COCCN1CC(=O)c1cc2n(n1)CCCN(C(=O)OCc1cc(Cl)cc(C(F)(F)F)c1)C2` (stereo not shown) [Example 257, 3-chloro-5-(trifluoromethyl)benzyl 2-(2-(3-methylmorpholino)acetyl)-7,8-dihydro-4H-pyrazolo[1,5-a][1,4]diazepine-5(6H)-carboxylate]: the IC50 was at most 100 nM.

In turn, `O=C(CN1CC2CC2C1)c1cc2n(n1)CCN(C(=O)OCc1cc(C(F)(F)F)cc(C(F)(F)F)c1)C2` (stereo not shown) [Example 258] yielded an IC50 of at most 100 nM.

In turn, `O=C(CN1CCOCC1)c1cc2n(n1)CCN(C(=O)OCc1cc(C(F)(F)F)cc(C(F)(F)F)c1)C2` [Example 259] displayed an IC50 of at most 100 nM.

`CC1(C)COCCN1CC(=O)c1cc2n(n1)CCN(C(=O)OCc1cc(C(F)(F)F)cc(C(F)(F)F)c1)C2` [Example 260]: the IC50 is at most 100 nM.

In turn, `CC1COCC(C)N1CC(=O)c1cc2n(n1)CCCN(C(=O)OCc1cc(Cl)cc(C(F)(F)F)c1)C2` (stereo not shown) [Example 261] registered an IC50 of at most 100 nM.

Regarding `C[C@H]1CCCN1CC(=O)c1cc2n(n1)CCCN(C(=O)OCc1cc(Cl)cc(C(F)(F)F)c1)C2` [Example 262], the IC50 is at most 100 nM.

The compound `C[C@@H]1CCCN1CC(=O)c1cc2n(n1)CCCN(C(=O)OCc1cc(Cl)cc(C(F)(F)F)c1)C2` [Example 265] showed an IC50 of at most 100 nM.

With `CC1OCCN(CC(=O)c2cc3n(n2)CCCN(C(=O)OCc2cc(Cl)cc(C(F)(F)F)c2)C3)C1C` (stereo not shown) [Example 266], the IC50 is at most 100 nM.

For `CC1(C)COCCN1CC(=O)c1cc2n(n1)CCCN(C(=O)OCc1cc(Cl)cc(C(F)(F)F)c1)C2` [Example 267], the IC50 was at most 100 nM.

`CC1CN(CC(=O)c2cc3n(n2)CCCN(C(=O)OCc2cc(Cl)cc(C(F)(F)F)c2)C3)CCO1` (stereo not shown) [Example 268] came in with an IC50 of at most 100 nM.

Take `CC1CN(CC(=O)c2cc3n(n2)CCCN(C(=O)OCc2cc(Cl)cc(C(F)(F)F)c2)C3)CC(C)O1` (stereo not shown) [Example 269]: the IC50 was at most 100 nM.

`O=C(CN1CCOCC1)c1cc2n(n1)CCCN(C(=O)OCc1cc(Cl)cc(C(F)(F)F)c1)C2` [Example 271] returned a half-inhibitory concentration (IC50) of at most 100 nM.

In turn, `O=C(CN1CC(C(=O)O)C1)c1cc2n(n1)CCCN(C(=O)OCc1cc(Cl)cc(C(F)(F)F)c1)C2` [Example 272] yielded an IC50 of at most 100 nM.

Regarding `O=C(CN1CCCC1)c1cc2n(n1)CCCN(C(=O)OCc1cc(Cl)cc(C(F)(F)F)c1)C2` [Example 273], the IC50 is at most 100 nM.

As to `O=C(OCc1cc(Cl)cc(C(F)(F)F)c1)N1CCn2nc(NC3CCNCC3)cc2C1` [Example 274, 3-chloro-5-(trifluoromethyl)benzyl 2-(piperidin-4-ylamino)-6,7-dihydropyrazolo[1,5-a]pyrazine-5(4H)-carboxylate], the IC50 is at most 100 nM.

In turn, `CN1CCN(C(=O)c2cc3n(c2)CCCN(C(=O)OCc2cc(Cl)cc(C(F)(F)F)c2)C3)CC1` [Example 277, 3-chloro-5-(trifluoromethyl)benzyl 8-(4-methylpiperazine-1-carbonyl)-4,5-dihydro-1H-pyrrolo[1,2-a][1,4]diazepine-2(3H)-carboxylate] came in with an IC50 of at most 100 nM.

The compound `CN1C2CCC1CN(C(=O)c1cc3n(c1)CCCN(C(=O)OCc1cc(Cl)cc(C(F)(F)F)c1)C3)C2` [Example 278, 3-chloro-5-(trifluoromethyl)benzyl 8-(8-methyl-3,8-diazabicyclo[3.2.1]octane-3-carbonyl)-4,5-dihydro-1H-pyrrolo[1,2-a][1,4]diazepine-2(3H)-carboxylate] yielded a concentration for half-maximal inhibition (IC50) of at most 100 nM.

In turn, `O=C(OCc1cc(C(F)(F)F)cc(C(F)(F)F)c1)N1CCCn2nc(Br)cc2C1` [Example 280] had an IC50 of at most 100 nM.

Turning to `COCc1cc2n(n1)CCCN(C(=O)OCc1cc(C(F)(F)F)cc(C(F)(F)F)c1)C2` [Example 285, 3,5-bis(trifluoromethyl)benzyl 2-(methoxymethyl)-7,8-dihydro-4H-pyrazolo[1,5-a][1,4]diazepine-5(6H)-carboxylate], the IC50 is at most 100 nM.

The compound `O=C(OCc1cc(Cl)cc(C(F)(F)F)c1)N1CCCn2nc(C(O)C(F)(F)F)cc2C1` (stereo not shown) [Example 286, 3-chloro-5-(trifluoromethyl)benzyl 2-(2,2,2-trifluoro-1-hydroxyethyl)-7,8-dihydro-4H-pyrazolo[1,5-a][1,4]diazepine-5(6H)-carboxylate] displayed an IC50 of at most 100 nM.

In turn, `CC1(C)C(NCc2cc3n(n2)CCCN(C(=O)OCc2cc(C(F)(F)F)cc(C(F)(F)F)c2)C3)CC1C(=O)O` (stereo not shown) [Example 287, 3-(((5-(((3,5-bis(trifluoromethyl)benzyl)oxy)carbonyl)-5,6,7,8-tetra-hydro-4H-pyrazolo[1,5-a][1,4]diazepin-2-yl)methyl)amino)-2,2-dimethylcyclo-butanecarboxylic acid] yielded a half-maximal inhibitory concentration (IC50) of at most 500 nM.

In the case of `O=C(OCc1cc(C(F)(F)F)cc(C(F)(F)F)c1)N1CCCn2nc(CN[C@H]3CC[C@@H](C(=O)O)CC3)cc2C1` [Example 288], the half-inhibitory concentration (IC50) was at most 500 nM.

For `O=C(OCc1cc(C(F)(F)F)cc(C(F)(F)F)c1)N1CCCn2nc(CN[C@H]3CC[C@H](C(=O)O)CC3)cc2C1` [Example 289], the IC50 was at most 250 nM.

Turning to `CN1CCN(Cc2cc3n(n2)CCCN(C(=O)OCc2cc(C(F)(F)F)cc(C(F)(F)F)c2)C3)CC1` [Example 290, 3,5-bis(trifluoromethyl)benzyl 2-((4-methylpiperazin-1-yl)methyl)-7,8-dihydro-4H-pyrazolo[1,5-a][1,4]diazepine-5(6H)-carboxylate], the IC50 was at most 500 nM.

As to `O=C(OCc1cc(C(F)(F)F)cc(C(F)(F)F)c1)N1CCCn2nc(CN3CCCCC3)cc2C1` [Example 291], the IC50 was at most 250 nM.

On to `O=C(OCc1cc(C(F)(F)F)cc(C(F)(F)F)c1)N1CCCn2nc(CN3C4CCCC3CC4)cc2C1` [Example 292], for which the IC50 was at most 250 nM.

`O=C(OCc1cc(C(F)(F)F)cc(C(F)(F)F)c1)N1CCCn2nc(CN3C4CCCC3CCC4)cc2C1` [Example 293] gave an IC50 of at most 100 nM.

Consider `CNCc1cc2n(n1)CCCN(C(=O)OCc1cc(C(F)(F)F)cc(C(F)(F)F)c1)C2` [Example 294], for which the IC50 is at most 500 nM.

The compound `O=C(O)C1CC2CCC(C1)N2Cc1cc2n(n1)CCCN(C(=O)OCc1cc(C(F)(F)F)cc(C(F)(F)F)c1)C2` (stereo not shown) [Example 296] gave an IC50 of at most 250 nM.

Regarding `O=C(O)C1CC2CCCC(C1)N2Cc1cc2n(n1)CCCN(C(=O)OCc1cc(C(F)(F)F)cc(C(F)(F)F)c1)C2` (stereo not shown) [Example 297], the IC50 was at most 250 nM.

In turn, `O=C(OCc1cc(C(F)(F)F)cc(C(F)(F)F)c1)N1CCCn2nc(C(=O)N3CCN(CCO)CC3)cc2C1` [Example 298, 3,5-bis(trifluoromethyl)benzyl 2-(4-(2-hydroxyethyl)piperazine-1-carbonyl)-7,8-dihydro-4H-pyrazolo[1,5-a][1,4]diazepine-5(6H)-carboxylate] yielded an IC50 of at most 100 nM.

`CS(=O)(=O)NC(=O)c1cc2n(n1)CCCN(C(=O)OCc1cc(C(F)(F)F)cc(C(F)(F)F)c1)C2` [Example 299, 3,5-bis(trifluoromethyl)benzyl 2-((methylsulfonyl)carbamoyl)-7,8-dihydro-4H-pyrazolo[1,5-a][1,4]diazepine-5(6H)-carboxylate]: the IC50 is at most 100 nM.

Regarding `NS(=O)(=O)c1cc2n(n1)CCCN(C(=O)OCc1cc(C(F)(F)F)cc(C(F)(F)F)c1)C2` [Example 301, 3,5-bis(trifluoromethyl)benzyl 2-sulfamoyl-7,8-dihydro-4H-pyrazolo[1,5-a][1,4]diazepine-5(6H)-carboxylate], the 50% inhibitory concentration (IC50) is at most 250 nM.

The compound `CN(C)S(=O)(=O)c1cc2n(n1)CCCN(C(=O)OCc1cc(C(F)(F)F)cc(C(F)(F)F)c1)C2` [Example 302, 3,5-bis(trifluoromethyl)benzyl 2-(N,N-dimethylsulfamoyl)-7,8-dihydro-4H-pyrazolo[1,5-a][1,4]diazepine-5(6H)-carboxylate] returned an IC50 of at most 100 nM.

As for `O=C(OCc1cc(C(F)(F)F)cc(C(F)(F)F)c1)N1CCCn2nc(S(=O)(=O)N3CCCCC3)cc2C1` [Example 304], the half-inhibitory concentration (IC50) was at most 100 nM.

`O=C(OCc1cc(C(F)(F)F)cc(C(F)(F)F)c1)N1CCCn2nc(S(=O)(=O)N3C4CCCC3CC4)cc2C1` [Example 305] returned an IC50 of at most 100 nM.

`O=C(OCc1cc(C(F)(F)F)cc(C(F)(F)F)c1)N1CCCn2nc(S(=O)(=O)N3C4CCCC3CCC4)cc2C1` [Example 306] gave an IC50 of at most 100 nM.

In the case of `CN1CCN(S(=O)(=O)c2cc3n(n2)CCCN(C(=O)OCc2cc(C(F)(F)F)cc(C(F)(F)F)c2)C3)CC1` [Example 308], the IC50 was at most 100 nM.

`O=C(OCc1cc(C(F)(F)F)cc(C(F)(F)F)c1)N1CCCn2nc(NC3CCNCC3)cc2C1` [Example 313, 3,5-bis(trifluoromethyl)benzyl 2-(piperidin-4-ylamino)-7,8-dihydro-4H-pyrazolo[1,5-a][1,4]diazepine-5(6H)-carboxylate]: the IC50 was at most 250 nM.

With `CC(C)C1CC(Nc2cc3n(n2)CCCN(C(=O)OCc2cc(C(F)(F)F)cc(C(F)(F)F)c2)C3)CCN1` (stereo not shown) [Example 314], the IC50 was at most 100 nM.
